Experimental data published in ChEMBL document CHEMBL4177696, “Identification of a diverse synthetic abietane diterpenoid library and insight into the structure-activity relationships for antibacterial activity” (Bioorg Med Chem Lett, 2017).
Converted amounts (≈) assume the structure as drawn.

Columns and labels:
Format in all cases: functional
Escherichia coli = experiment: Antibacterial activity against Escherichia coli measured after 24 hrs
Bacillus subtilis = experiment: Antibacterial activity against Bacillus subtilis measured after 24 hrs
Staphylococcus aureus = experiment: Antibacterial activity against Staphylococcus aureus measured after 24 hrs
Pseudomonas fluorescens = experiment: Antibacterial activity against Pseudomonas fluorescens measured after 24 hrs

Row | SMILES | MIC (Escherichia coli) [µg/mL] | MIC (Bacillus subtilis) [µg/mL] | MIC (Staphylococcus aureus) [µg/mL] | MIC (Pseudomonas fluorescens) [µg/mL]
1 | COC(=O)[C@]1(C)CCC[C@]2(C)c3ccc(C(C)C)c(O)c3CC[C@@H]12 | 50 (≈ 151 µM) | 75 (≈ 227 µM) | 50 (≈ 151 µM) | 25 (≈ 75.7 µM)
2 | COc1c(C(C)C)ccc2c1CC[C@H]1[C@@H](O)CCC[C@]21C | 75 (≈ 260 µM) | 100 (≈ 347 µM) | 100 (≈ 347 µM) | 100 (≈ 347 µM)
3 | COc1c(C(C)C)ccc2c1CC[C@H]1C(=O)CCC[C@]21C | 75 (≈ 262 µM) | 100 (≈ 349 µM) | 75 (≈ 262 µM) | 100 (≈ 349 µM)
4 | C[C@]12CC=C3C(=O)OC[C@@H]3[C@@H]1CCc1ccccc12 | 0.8 (≈ 3.15 µM) | 25 (≈ 98.3 µM) | 50 (≈ 197 µM) | 1.6 (≈ 6.29 µM)
5 | COc1cccc2c1CC[C@H]1[C@@H](CO)[C@H](O[Si](C)(C)C(C)(C)C)CC[C@]21C | 100 (≈ 256 µM) | 100 (≈ 256 µM) | 100 (≈ 256 µM) | 75 (≈ 192 µM)
6 | COc1c(C(C)C)ccc2c1CC[C@H]1C(=O)CCC[C@]21CO[N+](=O)[O-] | 50 (≈ 144 µM) | 25 (≈ 72 µM) | 50 (≈ 144 µM) | 75 (≈ 216 µM)
7 | COC(=O)[C@]1(C)CCC[C@@]2(C)[C@H]1CC=C1C(=O)[C@@](O)(C(C)C)CC[C@@H]12 | 75 (≈ 215 µM) | 100 (≈ 287 µM) | 75 (≈ 215 µM) | 100 (≈ 287 µM)
8 | COC(=O)[C@]1(C)CCC[C@]2(C)c3ccc(C(C)C)c(N)c3CC[C@@H]12 | 50 (≈ 152 µM) | 50 (≈ 152 µM) | 25 (≈ 75.9 µM) | 50 (≈ 152 µM)
9 | C=C1CCC[C@]2(C)c3ccc(C(C)C)c(OC)c3CC[C@@H]12 | 100 (≈ 352 µM) | 75 (≈ 264 µM) | 100 (≈ 352 µM) | 100 (≈ 352 µM)
10 | COc1ccc(COC[C@H]2[C@H](O)CC[C@]3(C)c4cccc(OC)c4CC[C@@H]23)cc1 | 25 (≈ 63 µM) | 50 (≈ 126 µM) | 25 (≈ 63 µM) | 25 (≈ 63 µM)
11 | COC(=O)[C@]1(C)CCC[C@@]2(C)[C@H]1CC=C1[C@@H]2CC[C@](O)(C(C)C)[C@H]1O | 100 (≈ 285 µM) | 75 (≈ 214 µM) | 75 (≈ 214 µM) | 75 (≈ 214 µM)
12 | COC(=O)[C@]1(C)CCC[C@]2(C)c3ccc(C(C)C)c(OC)c3CC[C@@H]12 | 100 (≈ 290 µM) | 75 (≈ 218 µM) | 75 (≈ 218 µM) | 75 (≈ 218 µM)
13 | COc1c(C(C)C)ccc2c1CC[C@@]1(O)C3=C(CC[C@]21C)C(=O)OC3 | 100 (≈ 292 µM) | 100 (≈ 292 µM) | 100 (≈ 292 µM) | 100 (≈ 292 µM)
14 | COc1c(C(C)C)ccc2c1CC[C@H]1C3=C(CC[C@]21CO)C(=O)OC3 | 50 (≈ 146 µM) | 75 (≈ 219 µM) | 50 (≈ 146 µM) | 75 (≈ 219 µM)
15 | C=C1[C@H](O)CC[C@]2(C)c3ccc(C(C)C)c(OC)c3CC[C@@H]12 | 100 (≈ 333 µM) | 100 (≈ 333 µM) | 100 (≈ 333 µM) | 100 (≈ 333 µM)
16 | COc1cccc2c1CC[C@H]1C3=C(CC[C@]21C)C(=O)OC3 | 100 (≈ 352 µM) | 100 (≈ 352 µM) | 100 (≈ 352 µM) | 100 (≈ 352 µM)
17 | COc1c(C(C)C)ccc2c1CC[C@H]1c3cocc3CC[C@]21C | 100 (≈ 322 µM) | 100 (≈ 322 µM) | 50 (≈ 161 µM) | 100 (≈ 322 µM)
18 | CC(C)(C)[Si](C)(C)O[C@@H]1CC[C@]2(C)c3ccccc3CC[C@H]2[C@H]1CO | 100 (≈ 277 µM) | 75 (≈ 208 µM) | 100 (≈ 277 µM) | 75 (≈ 208 µM)
19 | COc1c(C(C)C)ccc2c1CC[C@H]1[C@@H](O)CCC[C@]21CO[N+](=O)[O-] | 100 (≈ 286 µM) | 75 (≈ 215 µM) | 100 (≈ 286 µM) | 25 (≈ 71.5 µM)
20 | COC(=O)C1=C[C@@H]2CCc3c(ccc(C(C)C)c3OC)[C@@]2(C)CC1 | 75 (≈ 228 µM) | 25 (≈ 76.1 µM) | 50 (≈ 152 µM) | 25 (≈ 76.1 µM)
21 | COC(=O)[C@]1(C)CCC[C@]2(C)c3ccc(C(C)C)c(OC)c3C(=O)C[C@@H]12 | 25 (≈ 69.7 µM) | 50 (≈ 139 µM) | 50 (≈ 139 µM) | 50 (≈ 139 µM)
22 | COc1c(C(C)C)ccc2c1CC[C@H]1[C@@H](CO)[C@H](O)CC[C@]21C | 75 (≈ 236 µM) | 100 (≈ 314 µM) | 75 (≈ 236 µM) | 50 (≈ 157 µM)
23 | COc1c(C(C)C)ccc2c1CC[C@H]1C3=C(CC[C@]21C)C(=O)OC3 | 100 (≈ 306 µM) | 100 (≈ 306 µM) | 100 (≈ 306 µM) | 100 (≈ 306 µM)
24 | C=C1[C@H](O[Si](C)(C)C(C)(C)C)CC[C@]2(C)c3ccccc3CC[C@@H]12 | 75 (≈ 219 µM) | 100 (≈ 292 µM) | 100 (≈ 292 µM) | 75 (≈ 219 µM)
25 | C[C@]12CCC3=C(COC3=O)[C@@H]1CCc1ccccc12 | 100 (≈ 393 µM) | 75 (≈ 295 µM) | 100 (≈ 393 µM) | 75 (≈ 295 µM)
26 | C=C1C(=O)CC[C@]2(C)c3ccc(C(C)C)c(OC)c3CC[C@@H]12 | 6.3 (≈ 21.1 µM) | 12.5 (≈ 41.9 µM) | 25 (≈ 83.8 µM) | 25 (≈ 83.8 µM)

Row | SMILES | MIC (Escherichia coli) [µg/mL] | MIC (Bacillus subtilis) [µg/mL] | MIC (Staphylococcus aureus) [µg/mL] | MIC (Pseudomonas fluorescens) [µg/mL]
27 | CC(C)(C)C(=O)OC[C@H]1[C@H](O)CC[C@]2(C)c3ccccc3CC[C@@H]12 | 25 (≈ 75.7 µM) | 50 (≈ 151 µM) | 25 (≈ 75.7 µM) | 25 (≈ 75.7 µM)
28 | COC(=O)[C@]1(C)CCC[C@]2(C)c3ccc(C(C)C)c(NC(=O)Cn4cc(Cc5ccccc5)nn4)c3CC[C@@H]12 | 75 (≈ 142 µM) | 50 (≈ 94.6 µM) | 50 (≈ 94.6 µM) | 50 (≈ 94.6 µM)
29 | COC(=O)[C@]1(C)CCC[C@]2(C)c3ccc(C(C)C)c(NC(=O)Cn4cc(-c5ccc(OC)cc5)nn4)c3CC[C@@H]12 | 12.5 (≈ 22.9 µM) | 50 (≈ 91.8 µM) | 6.3 (≈ 11.6 µM) | 25 (≈ 45.9 µM)
30 | COC(=O)[C@]1(C)CCC[C@]2(C)c3ccc(C(C)C)c(NC(=O)Cn4cc(C5CC5)nn4)c3CC[C@@H]12 | 6.3 (≈ 13.2 µM) | 75 (≈ 157 µM) | 50 (≈ 104 µM) | 75 (≈ 157 µM)
31 | COC(=O)[C@]1(C)CCC[C@]2(C)c3ccc(C(C)C)c(NC(=O)Cn4cc(-c5ccccc5OC)nn4)c3CC[C@@H]12 | 75 (≈ 138 µM) | 50 (≈ 91.8 µM) | 75 (≈ 138 µM) | 25 (≈ 45.9 µM)
32 | COC(=O)c1nnn(CC(=O)Nc2c(C(C)C)ccc3c2CC[C@H]2[C@](C)(C(=O)OC)CCC[C@]32C)c1C(=O)OC | 25 (≈ 45.1 µM) | 75 (≈ 135 µM) | 25 (≈ 45.1 µM) | 50 (≈ 90.1 µM)
33 | COC(=O)[C@]1(C)CCC[C@]2(C)c3ccc(C(C)C)c(NC(=O)Cn4cc(-c5cccc(F)c5)nn4)c3CC[C@@H]12 | 25 (≈ 46.9 µM) | 6.3 (≈ 11.8 µM) | 12.5 (≈ 23.5 µM) | 12.5 (≈ 23.5 µM)
34 | COC(=O)[C@]1(C)CCC[C@]2(C)c3ccc(C(C)C)c(NC(=O)Cn4cc(-c5cccc(OC)c5)nn4)c3CC[C@@H]12 | 75 (≈ 138 µM) | 75 (≈ 138 µM) | 50 (≈ 91.8 µM) | 50 (≈ 91.8 µM)
35 | COC(=O)[C@]1(C)CCC[C@]2(C)c3ccc(C(C)C)c(NC(=O)Cn4cc(-c5ccccc5)nn4)c3CC[C@@H]12 | 25 (≈ 48.6 µM) | 25 (≈ 48.6 µM) | 50 (≈ 97.1 µM) | 50 (≈ 97.1 µM)
36 | COC(=O)[C@]1(C)CCC[C@]2(C)c3ccc(C(C)C)c(NC(=O)Cn4cc(-c5ccc(F)cc5)nn4)c3CC[C@@H]12 | 50 (≈ 93.9 µM) | 25 (≈ 46.9 µM) | 50 (≈ 93.9 µM) | 50 (≈ 93.9 µM)
37 | COC(=O)[C@]1(C)CCC[C@]2(C)c3ccc(C(C)C)c(NC(=O)Cn4cc(CBr)nn4)c3CC[C@@H]12 | 75 (≈ 141 µM) | 50 (≈ 94.1 µM) | 50 (≈ 94.1 µM) | 25 (≈ 47 µM)
38 | COC(=O)[C@]1(C)CCC[C@]2(C)c3ccc(C(C)C)c(NC(=O)Cn4cc(-c5ccccc5F)nn4)c3CC[C@@H]12 | 25 (≈ 46.9 µM) | 50 (≈ 93.9 µM) | 25 (≈ 46.9 µM) | 12.5 (≈ 23.5 µM)
39 | COC(=O)[C@]1(C)CCC[C@]2(C)c3ccc(C(C)C)c(NC(=O)Cn4cc([Si](C)(C)C)nn4)c3CC[C@@H]12 | 75 (≈ 147 µM) | 100 (≈ 196 µM) | 75 (≈ 147 µM) | 100 (≈ 196 µM)
40 | CCOCOC[C@]12CCC3=C(COC3=O)[C@@H]1CCc1c2ccc(C(C)C)c1OC | 100 (≈ 250 µM) | 100 (≈ 250 µM) | 100 (≈ 250 µM) | 100 (≈ 250 µM)
41 | C=C1[C@@H]2CCc3c(ccc(C(C)C)c3OC)[C@@]2(C)CC[C@@]1(O)CO | 50 (≈ 151 µM) | 25 (≈ 75.7 µM) | 50 (≈ 151 µM) | 25 (≈ 75.7 µM)
42 | COc1c(C(C)C)ccc2c1CC[C@H]1[C@@H]3COC(=O)[C@]3(O)CC[C@]21C | 50 (≈ 145 µM) | 100 (≈ 290 µM) | 100 (≈ 290 µM) | 100 (≈ 290 µM)
43 | COC(=O)[C@]1(C)CCC[C@]2(C)c3ccc(C(C)C)c(NC(=O)Cn4cc(CCC#N)nn4)c3CC[C@@H]12 | 50 (≈ 102 µM) | 75 (≈ 153 µM) | 50 (≈ 102 µM) | 50 (≈ 102 µM)
44 | COC(=O)c1cn(CC(=O)Nc2c(C(C)C)ccc3c2CC[C@H]2[C@](C)(C(=O)OC)CCC[C@]32C)nn1 | 75 (≈ 151 µM) | 50 (≈ 101 µM) | 75 (≈ 151 µM) | 50 (≈ 101 µM)
45 | COc1c(C(C)C)ccc2c1CC[C@H]1[C@H]3COC(=O)[C@@]3(O)CC[C@]21C | 100 (≈ 290 µM) | 100 (≈ 290 µM) | 75 (≈ 218 µM) | 100 (≈ 290 µM)
46 | COC(=O)[C@]1(C)CCC[C@]2(C)c3ccc(C(C)C)c(NC(=O)Cn4cc(COc5ccccc5)nn4)c3CC[C@@H]12 | 25 (≈ 45.9 µM) | 12.5 (≈ 22.9 µM) | 50 (≈ 91.8 µM) | 75 (≈ 138 µM)
47 | COC(=O)[C@]1(C)CCC[C@]2(C)c3ccc(C(C)C)c(NC(=O)Cn4cc(CNC(=O)OC(C)(C)C)nn4)c3CC[C@@H]12 | 100 (≈ 176 µM) | 50 (≈ 88.1 µM) | 75 (≈ 132 µM) | 25 (≈ 44 µM)
48 | COC(=O)[C@]1(C)CCC[C@]2(C)c3ccc(C(C)C)c(NC(=O)Cn4cc(C(O)c5ccccc5)nn4)c3CC[C@@H]12 (some centres undefined) | 50 (≈ 91.8 µM) | 75 (≈ 138 µM) | 25 (≈ 45.9 µM) | 75 (≈ 138 µM)
49 | C=C1C(CO)=CC[C@]2(C)c3ccc(C(C)C)c(OC)c3CC[C@@H]12 | 100 (≈ 320 µM) | 100 (≈ 320 µM) | 75 (≈ 240 µM) | 75 (≈ 240 µM)
50 | COc1c(C(C)C)ccc2c1CC[C@H]1C(=O)C(=C(SC)SC)CC[C@]21CO | 3.1 (≈ 7.62 µM) | 12.5 (≈ 30.7 µM) | 25 (≈ 61.5 µM) | 6.3 (≈ 15.5 µM)
51 | COC(=O)[C@]1(C)CCC[C@]2(C)c3ccc(C(C)C)c(NC(=O)Cn4cc(CCO)nn4)c3CC[C@@H]12 | 25 (≈ 51.8 µM) | 50 (≈ 104 µM) | 25 (≈ 51.8 µM) | 75 (≈ 155 µM)
